Test system: Botrytis cinerea
Assay: Botrytis test (bean)/protective
Type: in vivo
Conditions: topical, 48 h, protective, application rate 500 g/ha, evaluation 2 days after inoculation, read-out: Efficacy in %
Description: Botrytis Test (Bean)/Protective
To produce a suitable preparation of active compound, 1 part by weight of active compound is mixed with the stated amounts of solvent and emulsifier, and the concentrate is diluted with water to the desired concentration. To test for protective activity, young plants are sprayed with the preparation of active compound at the stated application rate. After the spray coating has dried on, 2 small pieces of agar colonized by Botrytis cinerea are placed onto each leaf. The inoculated plants are placed in a dark chamber at about 20° C. and 100% relative atmospheric humidity.
2 days after the inoculation, the size of the infected areas on the leaves is evaluated. 0% means an efficacy which corresponds to that of the control, whereas an efficacy of 100% means that no infection is observed.

First: CC(Nc1c(-c2ccc(F)cc2Cl)c(Cl)nc2c(C#N)cnn12)C(F)(F)F (centres unmarked) [drawing 123]
Second: C[C@H](Nc1c(-c2ccc(F)cc2Cl)c(Cl)nc2c(C#N)cnn12)C(F)(F)F [drawing 124]
The pest or weed control at 500 g/ha of the first is lower: 99% for the first, 100% for the second.

CC(C)CN(C)c1c(-c2c(F)cc(F)cc2F)c(Cl)nc2c(C#N)cnn12 [drawing 121] and C=C(C)CN(C)c1c(-c2c(F)cc(F)cc2F)c(Cl)nc2c(C#N)cnn12 [drawing 122] are the same in pest or weed control at 500 g/ha: 100% for the first, 100% for the second.

First: C[C@H](Nc1c(-c2c(F)cccc2Cl)c(Cl)nc2c(C#N)cnn12)C(F)(F)F [drawing 130]
Second: C[C@H](Nc1c(-c2c(F)cc(F)cc2F)c(Cl)nc2c(C#N)cnn12)C(F)(F)F [drawing 115]
The pest or weed control at 500 g/ha of the first is higher: 100% for the first, 99% for the second.

Compared with CC(C)[C@@H](C)Nc1c(-c2c(F)cc(F)cc2F)c(Cl)nc2c(C#N)cnn12 [drawing 118], CC(C)Nc1c(-c2c(F)cc(F)cc2F)c(Cl)nc2c(C#N)cnn12 [drawing 120] is lower in pest or weed control at 500 g/ha: 96% for the first, 93% for the second.

Compared with Fc1cc(F)c(-c2c(Cl)nc3c(Cl)cnn3c2N2CCC(F)(F)CC2)c(F)c1 [drawing 117], CCC(C)Nc1c(-c2c(F)cc(F)cc2F)c(Cl)nc2c(C#N)cnn12 (centres unmarked) [drawing 119] is higher in pest or weed control at 500 g/ha: 95% for the first, 97% for the second.

C=C(C)CN(CC)c1c(-c2c(F)cc(F)cc2F)c(Cl)nc2c(C#N)cnn12 [drawing 114] and C=C(C)CN(CC)c1c(-c2c(F)cccc2Cl)c(Cl)nc2c(C#N)cnn12 [drawing 129] are the same in pest or weed control at 500 g/ha: 100% for the first, 100% for the second.

CC(C)CN(C)c1c(-c2c(F)cccc2Cl)c(Cl)nc2c(C#N)cnn12 [drawing 128] and N#Cc1cnn2c(NCC3CC3)c(-c3c(F)cccc3Cl)c(Cl)nc12 [drawing 113] are the same in pest or weed control at 500 g/ha: 99% for the first, 99% for the second.

Going from CC1CCN(c2c(-c3c(F)cccc3Cl)c(Cl)nc3c(C#N)cnn23)CC1 [drawing 112] to N#Cc1cnn2c(N3CCC(F)CC3)c(-c3c(F)cccc3Cl)c(Cl)nc12 [drawing 127], the pest or weed control at 500 g/ha falls from 96% to 94%.

Going from CC1CCN(c2c(-c3ccccc3Cl)c(Cl)nc3c(C#N)cnn23)CC1 [drawing 126] to N#Cc1cnn2c(N3CCCCC3)c(-c3c(F)cccc3Cl)c(Cl)nc12 [drawing 111], the pest or weed control at 500 g/ha falls from 95% to 93%.

Test system: not listed separately
Assay: physchem
Conditions: log P

Going from Fc1cc(F)c(-c2c(Cl)nc3c(Cl)cnn3c2Cl)c(F)c1 [Example 442, 3,5,7-trichloro-6-(2,4,6-trifluorophenyl)pyrazolo[1,5-a]pyrimidine] to C[C@H](Nc1c(-c2c(F)cc(F)cc2F)c(Cl)nc2c(Cl)cnn12)C(F)(F)F [Example 3, N-[3,5-dichloro-6-(2,4,6-trifluorophenyl)pyrazolo[1,5-a]pyrimidin-7-yl]-N-[(1S)-2,2,2-trifluoro-1-methylethyl]amine], the chromatographic logP rises from 3.97 to 4.43.

Compared with CC(C)C(C)Nc1c(-c2c(F)cccc2Cl)cnc2c(C#N)cnn12 (centres unmarked) [Example 4, 6-(2-chloro-6-fluorophenyl)-7-[(1,2-dimethylpropyl)amino)pyrazolo[1,5-a]pyrimidine-3-carbonitrile], CC(C)C(C)Nc1c(-c2ccc(F)cc2Cl)cnc2c(Cl)cnn12 (centres unmarked) [Example 5, N-[3-chloro-6-(2-chloro-4-fluorophenyl)pyrazolo[1,5-a]pyrimidin-7-yl]-N-(1,2-dimethylpropyl)amine] is higher in chromatographic logP: 3.78 for the first, 4.53 for the second.

Fc1ccc(-c2cnc3c(Cl)cnn3c2Cl)c(Cl)c1 [Example 443, 3,7-dichloro-6-(2-chloro-4-fluorophenyl)pyrazolo[1,5-a]pyrimidine] and N#Cc1cnn2c(Cl)c(-c3ccc(F)cc3Cl)c(Cl)nc12 [Example 441, 3-cyano-5,7-dichloro-6-(2-chloro-4-fluorophenyl)pyrazolo[1,5-a]pyrimidine] are within 0.2 log units of each other in chromatographic logP: 3.56 for the first, 3.48 for the second.

First: CO/N=C\c1cnn2c(NC(C)C(C)(C)C)c(-c3ccc(F)cc3Cl)c(Cl)nc12 (centres unmarked) [Example 402, 3-methoximino-5-chloro-6-(2-chloro-4-fluorophenyl)-7-(1,2,2-trimethylpropylamino)pyrazolo[1,5a]pyrimidine]
Second: CC(Nc1c(-c2ccc(F)cc2Cl)c(Cl)nc2c(C=O)cnn12)C(C)(C)C (centres unmarked) [Example 401, 3-formyl-5-chloro-6-(2-chloro-4-fluorophenyl)-7-(1,2,2-trimethylpropylamino)pyrazolo[1,5a]pyrimidine]
The chromatographic logP of the first is higher: 5.48 for the first, 4.43 for the second.

In the case of C[C@H](Nc1c(-c2ccc(F)cc2Cl)c(Cl)nc2c(C#N)cnn12)C(F)(F)F (single isomer, unassigned) [Example 1], the chromatographic logP was 3.88.

Same assay, conditions: logP

Going from CC(C)Nc1c(-c2c(F)cc(F)cc2F)c(Cl)nc2c(C#N)cnn12 [compound 52] to CCC(C)Nc1c(-c2c(F)cc(F)cc2F)c(Cl)nc2c(C#N)cnn12 (centres unmarked) [compound 50], the chromatographic logP rises from 3.54 to 3.89.

CC1CCN(c2c(-c3ccccc3Cl)c(Cl)nc3c(C#N)cnn23)CC1 [compound 95] and CC1CCN(c2c(-c3c(F)cccc3Cl)c(Cl)nc3c(C#N)cnn23)CC1 [compound 28] are within 0.2 log units of each other in chromatographic logP: 4.78 for the first, 4.77 for the second.

Compared with N#Cc1cnn2c(N3CCOCC3)c(-c3c(F)cccc3Cl)c(Cl)nc12 [compound 14], N#Cc1cnn2c(N3CCC(F)CC3)c(-c3c(F)cccc3Cl)c(Cl)nc12 [compound 34] is higher in chromatographic logP: 3.26 for the first, 3.82 for the second.

CC(C)CN(C)c1c(-c2ccccc2Cl)c(Cl)nc2c(C#N)cnn12 [compound 138] and CC(C)CN(C)c1c(-c2c(F)cccc2Cl)c(Cl)nc2c(C#N)cnn12 [compound 46] are the same in chromatographic logP: 4.51 for the first, 4.51 for the second.

Going from CC(C)CNc1c(-c2ccc(F)cc2F)c(Cl)nc2c(C#N)cnn12 [compound 148] to C[C@H](Nc1c(-c2ccccc2F)c(Cl)nc2c(C#N)cnn12)C(F)(F)F [compound 74], the chromatographic logP falls from 3.87 to 3.49.

C[C@H](Nc1c(-c2c(F)cccc2Cl)c(Cl)nc2c(C#N)cnn12)C(F)(F)F [compound 12] and C[C@H](Nc1c(-c2c(F)cc(F)cc2F)c(Cl)nc2c(C#N)cnn12)C(F)(F)F [compound 7] are within 0.2 log units of each other in chromatographic logP: 3.73 for the first, 3.69 for the second.

C=C(C)CN(CC)c1c(-c2c(F)cccc2Cl)c(Cl)nc2c(C#N)cnn12 [compound 13] and C=C(C)CN(CC)c1c(-c2c(F)cc(F)cc2F)c(Cl)nc2c(C#N)cnn12 [compound 6] are within 0.2 log units of each other in chromatographic logP: 4.68 for the first, 4.6 for the second.

CC(C)CN(C)c1c(-c2c(F)cc(F)cc2F)c(Cl)nc2c(C#N)cnn12 [compound 108] and C=C(C)CN(C)c1c(-c2c(F)cc(F)cc2F)c(Cl)nc2c(C#N)cnn12 [compound 110] are within 0.2 log units of each other in chromatographic logP: 4.37 for the first, 4.24 for the second.

N#Cc1cnn2c(NCC3CC3)c(-c3c(F)cc(F)cc3F)c(Cl)nc12 [compound 54] and N#Cc1cnn2c(NCC3CC3)c(-c3c(F)cccc3Cl)c(Cl)nc12 [compound 29] are within 0.2 log units of each other in chromatographic logP: 3.63 for the first, 3.74 for the second.

Compared with N#Cc1cnn2c(N3CCC(F)(F)CC3)c(-c3c(F)cc(F)cc3F)c(Cl)nc12 [compound 230], Fc1cc(F)c(-c2c(Cl)nc3c(Cl)cnn3c2N2CCC(F)(F)CC2)c(F)c1 [compound 231] is higher in chromatographic logP: 3.81 for the first, 4.61 for the second.

First: CO/N=C\c1cnn2c(NC(C)C(C)(C)C)c(-c3ccc(F)cc3Cl)c(Cl)nc12 (centres unmarked) [Example 402, 3-methoximino-5-chloro-6-(2-chloro-4-fluorophenyl)-7-(1,2,2-trimethylpropylamino)pyrazolo[1,5a]pyrimidine]
Second: CC(Nc1c(-c2ccc(F)cc2Cl)c(Cl)nc2c(C=O)cnn12)C(C)(C)C (centres unmarked) [Example 401, 3-formyl-5-chloro-6-(2-chloro-4-fluorophenyl)-7-(1,2,2-trimethylpropylamino)pyrazolo[1,5a]pyrimidine]
The chromatographic logP of the first is higher: 5.48 for the first, 4.43 for the second.

For N#Cc1cnn2c(N3CCCCC3)c(-c3c(F)cccc3Cl)c(Cl)nc12 [compound 21], the chromatographic logP was 4.32.
